Like-named read-outs stand apart in the source and are kept apart here.
Assays:
Sit. Granarius = test: Diffusion action in wheat (gas phase between wheat grains); type: in vivo; conditions: Sitophilus granarius, 168 h, 50 ppm treated wheat layer, read-out: Mortality in % after 7 days exposure time
Description: A plexiglass box was divided by means of wire grids into ten vertical layers each 1 cm thick. Each compartment was filled with wheat grains. The first compartment contained wheat grains which had been treated with 50 ppm active agent (5% dusting agent). The remainder of the compartment contained untreated wheat. All the compartments were then supplied with grain weevils. The mortality was noted after 7 days exposure time and the results are expressed in the following table. Diffusion of active substance in gas phase between the wheat grains

Sitophilus granarius = test: Durability (disinfection) test on wheat, grain weevil; type: in vivo; conditions: 168 h, read-out: % animals dead after one week exposure
Description: (§1) Wheat was shaken up with 5% dusting agent and then mixed again repeatedly with untreated wheat at half the poison concentration. In this way, a dilution series with concentrations of 50 - 25 - 12 - 6 - 3 - 1.5 ppm was obtained.
(§2) Since the test is repeated once per month, the desired information is obtained concerning the residual effect. In the test, the important pests in storage protection were chosen, viz, the grain weevil (Sitophilus granarius) - lesser grain borer (Rhizopertha dominica) and the larvae of the Khapra beetle (Trogoderma granarium), which are very resistant to insecticides. 20 test insects were tested per concentration and the results are expressed in the following table.

Trogoderma granarium (L) = test: Durability (disinfection) test on wheat, larvae of the Khapra beetle; type: in vivo; conditions: 168 h, read-out: % animals dead after one week exposure
Description: as §1, §2

[1] = Acute oral toxicity (warm blooded toxicity) in rats; conditions: rat, in vivo, po
adult houseflies = test: Gas action against adult houseflies; type: in vivo, Musca domestica (housefly); conditions: 10 mg active substance, 2 liter glass cylinder
Description: Using a pipette 10 mg of active substance were placed on a watch glass which was then covered with a wire mesh and placed in a 2 liter glass cylinder. Immediately thereafter 30 houseflies were introduced into the container which was then sealed.
A comparative test between compound 1 and PHOSDRIN (Registered Trade Mark) carried out according to this method gave the following mortality periods in minutes for 10%, 50% and 100% kill of the test animals.

Rhizopertha dominica = test: Durability (disinfection) test on wheat, lesser grain borer; type: in vivo; conditions: Rhyzopertha dominica, 168 h, read-out: % animals dead after one week exposure
Description: as §1, §2

[2] = tested on: one day old houseflies (Musca domestica); test: Ingestion test with one day old houseflies; type: in vivo; conditions: read-out: % flies killed; for mortality at 0.4 ppm: 0.4 ppm in 30% sugar water; for mortality at 0.8 ppm: 0.8 ppm in 30% sugar water; for mortality at 1.5 ppm: 1.5 ppm in 30% sugar water; for mortality at 3 ppm: 3 ppm in 30% sugar water; for mortality at 6 ppm: 6 ppm in 30% sugar water; for mortality at 12 ppm: 12 ppm in 30% sugar water; for mortality at 25 ppm: 25 ppm in 30% sugar water; for mortality at 50 ppm: 50 ppm in 30% sugar water; for mortality at 100 ppm: 100 ppm in 30% sugar water
Description: Dilution series were manufactured with water. As solvent for the test preparations and similarly as a nutrition agent for the flies, 30% sugar water was used which had been coloured with chlorantin light red (as an attractant). The dilutions were tested with one day old houseflies. The 1, 2 and 4 hour controls enabled the speed of action to be determined. By means of the 24 hour control the limit concentration (action strength) could also be determined.

For `COC(=O)C(C)=COP(=S)(OC)OC` [Compound I, 3-hydroxymethacrylic acid methyl ester dimethylthionophosphate], the mortality at 50 ppm (Sit. Granarius; distance 1 cm) was 100%, the mortality at 50 ppm (Sit. Granarius; distance 2 cm) was 100% and the mortality at 50 ppm (Sit. Granarius; distance 3 cm) was 100%. For the same compound, the mortality at 50 ppm (Sit. Granarius; distance 4 cm) was 100%, the mortality at 50 ppm (Sit. Granarius; distance 5 cm) was 90% and the mortality at 50 ppm (Sit. Granarius; distance 6 cm) was 15%. It also gave a mortality at 1.5 ppm (Sitophilus granarius; wheat fresh) of 100%, a mortality at 1.5 ppm (Sitophilus granarius; wheat stored 1 month) of 90% and a mortality at 1.5 ppm (Sitophilus granarius; wheat stored 2 months) of 100%. It also gave a mortality at 1.5 ppm (Sitophilus granarius; wheat stored 3 months) of 70%, a mortality at 3 ppm (Sitophilus granarius; wheat fresh) of 100% and a mortality at 3 ppm (Sitophilus granarius; wheat stored 1 month) of 100%. The mortality at 3 ppm (Sitophilus granarius; wheat stored 2 months) was 100%, the mortality at 3 ppm (Sitophilus granarius; wheat stored 3 months) was 95% and the mortality at 6 ppm (Sitophilus granarius; wheat fresh) was 100%. The mortality at 6 ppm (Sitophilus granarius; wheat stored 1 month) was 100%, the mortality at 6 ppm (Sitophilus granarius; wheat stored 2 months) was 100% and the mortality at 6 ppm (Sitophilus granarius; wheat stored 3 months) was 100%. For the same compound, the mortality at 12 ppm (Sitophilus granarius; wheat fresh) was 100%, the mortality at 12 ppm (Sitophilus granarius; wheat stored 1 month) was 100% and the mortality at 12 ppm (Sitophilus granarius; wheat stored 2 months) was 100%. For the same compound, the mortality at 12 ppm (Sitophilus granarius; wheat stored 3 months) was 100%, the mortality at 25 ppm (Sitophilus granarius; wheat fresh) was 100% and the mortality at 25 ppm (Sitophilus granarius; wheat stored 1 month) was 100%. It also gave a mortality at 25 ppm (Sitophilus granarius; wheat stored 2 months) of 100%, a mortality at 25 ppm (Sitophilus granarius; wheat stored 3 months) of 100% and a mortality at 50 ppm (Sitophilus granarius; wheat fresh) of 100%. The mortality at 50 ppm (Sitophilus granarius; wheat stored 1 month) was 100%, the mortality at 50 ppm (Sitophilus granarius; wheat stored 2 months) was 100% and the mortality at 50 ppm (Sitophilus granarius; wheat stored 3 months) was 100%. It also gave a mortality at 1.5 ppm (Trogoderma granarium (L); wheat fresh) of 90%, a mortality at 1.5 ppm (Trogoderma granarium (L); wheat stored 1 month) of 0% and a mortality at 1.5 ppm (Trogoderma granarium (L); wheat stored 2 months) of 0%. The mortality at 1.5 ppm (Trogoderma granarium (L); wheat stored 3 months) was 0%, the mortality at 3 ppm (Trogoderma granarium (L); wheat fresh) was 95% and the mortality at 3 ppm (Trogoderma granarium (L); wheat stored 1 month) was 10%. The mortality at 3 ppm (Trogoderma granarium (L); wheat stored 2 months) was 0%, the mortality at 3 ppm (Trogoderma granarium (L); wheat stored 3 months) was 0% and the mortality at 6 ppm (Trogoderma granarium (L); wheat fresh) was 100%. The mortality at 6 ppm (Trogoderma granarium (L); wheat stored 1 month) was 85%, the mortality at 6 ppm (Trogoderma granarium (L); wheat stored 2 months) was 30% and the mortality at 6 ppm (Trogoderma granarium (L); wheat stored 3 months) was 10%. For the same compound, the mortality at 12 ppm (Trogoderma granarium (L); wheat fresh) was 100%, the mortality at 12 ppm (Trogoderma granarium (L); wheat stored 1 month) was 95% and the mortality at 12 ppm (Trogoderma granarium (L); wheat stored 2 months) was 85%. The mortality at 12 ppm (Trogoderma granarium (L); wheat stored 3 months) was 55%, the mortality at 25 ppm (Trogoderma granarium (L); wheat fresh) was 100% and the mortality at 25 ppm (Trogoderma granarium (L); wheat stored 1 month) was 100%. It also gave a mortality at 25 ppm (Trogoderma granarium (L); wheat stored 2 months) of 100%, a mortality at 25 ppm (Trogoderma granarium (L); wheat stored 3 months) of 100% and a mortality at 50 ppm (Trogoderma granarium (L); wheat fresh) of 100%. It also gave a mortality at 50 ppm (Trogoderma granarium (L); wheat stored 1 month) of 100%, a mortality at 50 ppm (Trogoderma granarium (L); wheat stored 2 months) of 100% and a mortality at 50 ppm (Trogoderma granarium (L); wheat stored 3 months) of 100%. For the same compound, the LD50 [1] was 500 mg/kg, the “Mortality time for 10% of the houseflies” value (adult houseflies; 10% kill) was 5 min and the “Mortality time for 50% of the houseflies” value (adult houseflies; 50% kill) was 6 min. For the same compound, the “Mortality time for 100% of the houseflies” value (adult houseflies; 100% kill) was 25 min, the mortality at 1.5 ppm (Rhizopertha dominica; wheat fresh) was 20% and the mortality at 1.5 ppm (Rhizopertha dominica; wheat stored 1 month) was 0%. For the same compound, the mortality at 1.5 ppm (Rhizopertha dominica; wheat stored 2 months) was 15%, the mortality at 1.5 ppm (Rhizopertha dominica; wheat stored 3 months) was 0% and the mortality at 3 ppm (Rhizopertha dominica; wheat fresh) was 90%. For the same compound, the mortality at 3 ppm (Rhizopertha dominica; wheat stored 1 month) was 5%, the mortality at 3 ppm (Rhizopertha dominica; wheat stored 2 months) was 10% and the mortality at 3 ppm (Rhizopertha dominica; wheat stored 3 months) was 15%. The mortality at 6 ppm (Rhizopertha dominica; wheat fresh) was 100%, the mortality at 6 ppm (Rhizopertha dominica; wheat stored 1 month) was 60% and the mortality at 6 ppm (Rhizopertha dominica; wheat stored 2 months) was 40%. For the same compound, the mortality at 6 ppm (Rhizopertha dominica; wheat stored 3 months) was 15%, the mortality at 12 ppm (Rhizopertha dominica; wheat fresh) was 100% and the mortality at 12 ppm (Rhizopertha dominica; wheat stored 1 month) was 85%. It also gave a mortality at 12 ppm (Rhizopertha dominica; wheat stored 2 months) of 70%, a mortality at 12 ppm (Rhizopertha dominica; wheat stored 3 months) of 35% and a mortality at 25 ppm (Rhizopertha dominica; wheat fresh) of 100%. For the same compound, the mortality at 25 ppm (Rhizopertha dominica; wheat stored 1 month) was 100%, the mortality at 25 ppm (Rhizopertha dominica; wheat stored 2 months) was 80% and the mortality at 25 ppm (Rhizopertha dominica; wheat stored 3 months) was 75%. It also gave a mortality at 50 ppm (Rhizopertha dominica; wheat fresh) of 100%, a mortality at 50 ppm (Rhizopertha dominica; wheat stored 1 month) of 100% and a mortality at 50 ppm (Rhizopertha dominica; wheat stored 2 months) of 100%. It also gave a mortality at 50 ppm (Rhizopertha dominica; wheat stored 3 months) of 100%, a mortality at 0.4 ppm ([2]; 1 hour) of 0% and a mortality at 0.4 ppm ([2]; 2 hours) of 0%. It also gave a mortality at 0.4 ppm ([2]; 4 hours) of 0%, a mortality at 0.4 ppm ([2]; 24 hours) of 0% and a mortality at 0.8 ppm ([2]; 1 hour) of 0%. For the same compound, the mortality at 0.8 ppm ([2]; 2 hours) was 0%, the mortality at 0.8 ppm ([2]; 4 hours) was 0% and the mortality at 0.8 ppm ([2]; 24 hours) was 0%. The mortality at 1.5 ppm ([2]; 1 hour) was 0%, the mortality at 1.5 ppm ([2]; 2 hours) was 0% and the mortality at 1.5 ppm ([2]; 4 hours) was 0%. For the same compound, the mortality at 1.5 ppm ([2]; 24 hours) was 10%, the mortality at 3 ppm ([2]; 1 hour) was 10% and the mortality at 3 ppm ([2]; 2 hours) was 20%. The mortality at 3 ppm ([2]; 4 hours) was 50%, the mortality at 3 ppm ([2]; 24 hours) was 90% and the mortality at 6 ppm ([2]; 1 hour) was 30%. For the same compound, the mortality at 6 ppm ([2]; 2 hours) was 40%, the mortality at 6 ppm ([2]; 4 hours) was 100% and the mortality at 6 ppm ([2]; 24 hours) was 100%. The mortality at 12 ppm ([2]; 1 hour) was 40%, the mortality at 12 ppm ([2]; 2 hours) was 70% and the mortality at 12 ppm ([2]; 4 hours) was 100%. For the same compound, the mortality at 12 ppm ([2]; 24 hours) was 100%, the mortality at 25 ppm ([2]; 1 hour) was 40% and the mortality at 25 ppm ([2]; 2 hours) was 70%. It also gave a mortality at 25 ppm ([2]; 4 hours) of 100%, a mortality at 25 ppm ([2]; 24 hours) of 100% and a mortality at 50 ppm ([2]; 1 hour) of 60%. It also gave a mortality at 50 ppm ([2]; 2 hours) of 90%, a mortality at 50 ppm ([2]; 4 hours) of 100% and a mortality at 50 ppm ([2]; 24 hours) of 100%. For the same compound, the mortality at 100 ppm ([2]; 1 hour) was 100%, the mortality at 100 ppm ([2]; 2 hours) was 100% and the mortality at 100 ppm ([2]; 4 hours) was 100%. It also gave a mortality at 100 ppm ([2]; 24 hours) of 100%.

From US4017611A, “Control of insects with 3-hydroxymethacrylic acid methyl ester dimethylthionophosphate” (priority 1970, dated 1977)
